In brackets after ≈: the same amount, converted by molar mass. Several values for one entry are separate records, joined by “and”; a condition that tells them apart may be missing. Equal entries are not always repeated. Where two headings read alike, the source gives them in different places.
What was measured:
IL-8 = assay: LPS-induced IL-8 release in PMA-differentiated U937 cells (ELISA); format: cell-based, human; conditions: for IL-8 inhibition (%): test concentration not given
Outline: (§1)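 PMA-differentiated U937 macrophage-like cells were pretreated with compound for 1 hr, then stimulated with LPS (100 ng/ml) for 4 hrs. Released IL-8 and TNFα were quantified by sandwich ELISA. Values are means of three experiments ± SEM.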

S. pneumoniae ATCC 49619 = assay: MIC; format: cell-based
MMP9 = assay: PMA-induced MMP9 expression in U937 cells (gelatin zymography); format: cell-based, human; conditions: test concentration not given; bracketed second value not explained
[1] = test system: S. aureus ATCC 29213 (MSSA) MLS-S; assay: MIC; format: cell-based
K. pneumonia 13883 = assay: MIC; format: cell-based; conditions: in µg/mL
P. aeruginosa ATCC 27853 = assay: MIC; format: cell-based
[2] = format: cell-based
HDAC activity = assay: H2O2-induced reduction of HDAC activity in PMA-differentiated U937 cells; format: cell-based, human; conditions: for restoration of H2O2-reduced HDAC activity (%): test concentration not given, bracketed second value not explained
Outline: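 U937 cells PMA-differentiated for 3 days, pretreated with compound for 20 min, then exposed to 200 μM H2O2 for 4 h with Fluor de Lys substrate present. Whole-cell HDAC activity measured fluorimetrically. Data expressed as fold change versus H2O2-only control, mean of four experiments ± SEM.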

E. coli ATCC 25922 = assay: MIC; format: cell-based; conditions: in µg/mL
TNFα = assay: LPS-induced TNFα release in PMA-differentiated U937 cells (ELISA); format: cell-based, human; conditions: for TNFα inhibition (%): test concentration not given
Outline: as §1

E. faecalis ATCC 29212 = assay: MIC; format: cell-based
[3] = test system: S. typhimurium ATCC 14028; assay: MIC; format: cell-based; conditions: in µg/mL
H. influenzae ATCC 49247 = assay: MIC; format: cell-based
[4] = test system: N. gonorrhoeae ATCC 49226; assay: MIC; format: cell-based; set-up: unit not given beside the values
S. pyogenes ATCC 19615 = assay: MIC; format: cell-based; conditions: in µg/mL
A/J mice exposed to LPS = assay: Anti-inflammatory activity in vivo: A/J mice exposed to LPS intranasally; conditions: intranasal, 1 hr before LPS challenge
U937 cells = assay: H2O2-induced steroid insensitivity in U937 cells (dexamethasone IC50 on TNFα-induced IL-8); format: cell-based, human; conditions: highest concentration tested (100 μM); H2O2 200 μM
Experimental: Cytokine ELISA. LPS-induced IL-8, TNFα concentrations and TNFα-induced IL-8 concentrations are determined by sandwich ELISA according to the manufacturer's instructions (R&D Systems Europe). IC50 values for dexamethasone on IL-8 production are calculated using the computer program Prism 4.0 (GraphPad Software Inc., San Diego, Calif.) as a marker for steroid sensitivity.
Restoration of steroid sensitivity. U937 cells: U937 are treated with oxidative stress (H2O2, 200 μM or 0.15 dilution CSM (cigarette smoke conditioned medium)) and 4 hours later, stimulated with TNFα (10 ng/ml) in the presence of dexamethasone (10^−11-10^−6M). Supernatant and cells are collected 24 hrs after stimulation and IL-8 is measured by conventional ELISA. As the index of corticosteroid sensitivity, IC50 of dexamethasone is calculated. Test compounds are treated 20 min before oxidative stress treatment.
Effects of compounds on H2O2-induced steroid insensitivity in U937 cells. Cells stimulated with H2O2 (200 μM) overnight are incubated with compounds described herein for 30 min under H2O2 (200 μM) exposure. The cells are treated with dexamethasone (10^−11 to 10^−6 M) for 20 min, followed by the TNFα stimulation overnight. TNFα-induced IL-8 release is evaluated by ELISA and IC50 values for dexamethasone on IL-8 production are calculated using Prism. Data are expressed as fold changes against positive control treated with H2O2 only. Values represent means of four experiments±SEM. H2O2 exposure reduces dexamethasone sensitivity by approximately 4 fold based on calculated IC50 values of TNFα-induced IL-8 production.

Akt = assay: H2O2-induced phosphorylation of Akt in PMA-differentiated U937 cells (western blot); format: cell-based, human; conditions: PMA-differentiated U937; H2O2 1 mM 30 min
Experimental: Cell Lysis and Western Blotting. Whole cell protein extracts are prepared using modified RIPA buffer (50 mM Tris HCL pH 7.4, 0.5% NP-40, 0.25% Na-deoxycholate, 150 mM NaCl with freshly added complete protease (Roche). Phosphatase inhibitor (Active Motif) is also added when required. Protein concentration is determined using the Bio-Rad Protein Assay (Bio-Rad). Proteins are separated by SDS-PAGE under denaturing conditions, and electrotransferred to a nitrocellulose membrane (Amersham Biosciences, Amersham, U.K.) (Western blotting). The membranes are blocked in TBS containing 0.05% Tween 20 and 5% non-fat dried milk, and then incubated with anti-pAkt or Akt antibody followed by an horse radish peroxidase-conjugated secondary antibody (Dako UK Ltd., Ely, UK). Bound antibodies are visualized by ECL Plus (GE Healthcare UK Ltd., Little Chalfont, UK). The band density is calculated by densitometry (UVP Bioimaging Systems, Cambridge, UK) using Labworks software (Ultra-Violet Products, Cambridge, UK).
Effects of compounds on H2O2-induced phosphorylation of Akt in PMA-differentiated U937 cells. PMA-differentiated macrophage-like cells are pretreated with compounds described herein for 20 min. After H2O2 (1 mM) stimulation for 30 min, cells are lysed. Phosphorylation levels of Akt are measured by western blot. Data are calculated relative to total protein, and expressed as fold changes against positive control treated with H2O2 only. Values represent means of three or four experiments±SEM.

S. pneumoniae 163 (MefA) = assay: MIC; format: cell-based; conditions: in µg/mL
[5] = test system: S. pneumoniae 3773 (ErmB); assay: MIC; format: cell-based
S. pyogenes ATCC 1721 = assay: MIC; format: cell-based
S. pneumoniae 303 (ErmB) = assay: MIC; format: cell-based

Structure (SMILES) | IL-8 inhibition (%) (IL-8) | MIC S. pneumoniae ATCC 49619 (S. pneumoniae ATCC 49619) [µg/mL] | MMP9 inhibition (%) (MMP9) | MIC S. aureus ATCC 29213 (MSSA) MLS-S [1] [µg/mL] | MIC K. pneumonia 13883 (K. pneumonia 13883) | MIC P. aeruginosa ATCC 27853 (P. aeruginosa ATCC 27853) [µg/mL] | Cell Toxicity (% cell death) ([2]; test concentration not given) [%] | restoration of H2O2-reduced HDAC activity (%) (HDAC activity) | MIC E. coli ATCC 25922 (E. coli ATCC 25922) | TNFα inhibition (%) (TNFα) | MIC E. faecalis ATCC 29212 (E. faecalis ATCC 29212) [µg/mL] | MIC S. typhimurium ATCC 14028 [3] | MIC H. influenzae ATCC 49247 (H. influenzae ATCC 49247) [µg/mL] | MIC S. pneumoniae 163 (MefA) (S. pneumoniae 163 (MefA)) | MIC S. pneumoniae 3773 (ErmB) [5] [µg/mL] | MIC S. pyogenes ATCC 1721 (S. pyogenes ATCC 1721) [µg/mL] | further results
CCC1OC(=O)C(C)C(OC2OCC(O)C(NC)C2O)C(C)C(OC2OC(C)CC(N(C)C)C2O)C(C)(O)CC(C)CN(C(C)=O)C(C)C2OC(=O)OC12C (mixture of isomers) [Example 32] | 55 | 32 | 40 (49) % | 32 | >64 | > 64 | 11 | 79 (65) % | >64 | 73 | 32 | >64 |  |  |  |  | 
CCC1OC(=O)C(C)C(OC2OCC(O)C(N(C)C)C2O)C(C)C(OC2OC(C)CC(N(C)C)C2O)C(C)(O)CC(C)CN(C(C)=O)C(C)C2OC(=O)OC12C (mixture of isomers) [Example 40] | 93 | 64 | 60 (38) % | 16 | >64 | > 64 | 26 | 26% | >64 | 68 | 32 | >64 | > 64 |  |  |  | MIC N. gonorrhoeae ATCC 49226 [4]: 8 and 16; MIC S. pyogenes ATCC 19615 (S. pyogenes ATCC 19615): >64
CC[C@H]1OC(=O)[C@H](C)[C@@H](O[C@H]2C[C@@](C)(OC)[C@@H](O)[C@H](C)O2)[C@H](C)[C@@H](O[C@@H]2O[C@H](C)C[C@H](N(C)C)[C@H]2O)[C@](C)(O)C[C@@H](C)CN(C)[C@H](C)[C@@H](O)[C@]1(C)O [AZI, azithromycin, reference compound] | 44 |  | 33 (25) % |  |  |  |  | 34% |  | 31 |  |  |  |  |  |  | anti-inflammatory action in LPS-exposed A/J mice (A/J mice exposed to LPS): have anti-inflammatory action; inhibition of LPS-induced IL-8 release compared with Example 33 (IL-8; LPS 100 ng/ml 4 hrs): did not show any inhibition at any concentration tested; restoration of dexamethasone sensitivity (U937 cells): None of ERY, CLR, or AZI restored dexamethasone sensitivity; inhibition of Akt phosphorylation compared with Example 33 (Akt): only at much higher concentrations than Example 33; Cell Toxicity (% cell death) ([2]; human): −16%; restoration of HDAC activity compared with Example 33 (HDAC activity; PMA-differentiated U937, H2O2 200 μM 4 hrs): only at much higher doses than Example 33; HDAC activity reached compared with untreated controls (HDAC activity; PMA-differentiated U937, H2O2 200 μM, comparators at highest doses tested): only restore HDAC activity to levels comparable to untreated controls; inhibition of LPS-induced TNFα release compared with Example 33 (TNFα; LPS 100 ng/ml 4 hrs): did not show any inhibition at any concentration tested
CC[C@H]1OC(=O)[C@H](C)C(=O)[C@H](C)[C@@H](O[C@@H]2O[C@H](COC(=O)c3ccccc3)[C@@H](N)[C@@H]2O)[C@@](C)(OC)C[C@@H](C)C(=O)[C@H](C)[C@H]2N(CCCCn3cc(-c4ccccn4)nn3)C(=O)O[C@]12C [Example 26] | −51 | 32 (≈ 35.9 µM) | 2% |  |  |  | −2 | 92% |  | −25 |  |  | > 64 | 64 | > 64 | > 64 | 
CC[C@H]1OC(=O)[C@@](C)(F)C(=O)[C@H](C)[C@@H](O[C@@H]2O[C@H](C)[C@@H](OC(=O)Nc3ccccc3)[C@H](N(C)C)[C@H]2O)[C@@](C)(OC)C[C@@H](C)C(=O)[C@H](C)[C@H]2N(CCCCn3cc(-c4ccccn4)nn3)C(=O)O[C@]12C [Example 27] | −43 | 32 (≈ 33.1 µM) | 1% |  |  |  | −7 | 75% |  | 34 |  |  | > 64 | 8 | > 64 | > 64 | MIC S. pneumoniae 303 (ErmB) (S. pneumoniae 303 (ErmB)): > 64 µg/mL
